What follows are molecules tested against T1, 5-Lipoxygenase (Mus musculus, UniProt P48999) (assay: 5-Lipoxygenase Assay (inhibition of LTC4 and 5-HETE production in MC-9 mast cells)). Conditions: MC-9 murine mast cells, [14C]-arachidonic acid, A23187.
T1 construct: Use the interleukin-3-dependent murine mast cell clone, MC-9; endogenous in cells; host or cells: MC-9 murine mast cell clone (interleukin-3-dependent)
T1 sequence (P48999 1-674): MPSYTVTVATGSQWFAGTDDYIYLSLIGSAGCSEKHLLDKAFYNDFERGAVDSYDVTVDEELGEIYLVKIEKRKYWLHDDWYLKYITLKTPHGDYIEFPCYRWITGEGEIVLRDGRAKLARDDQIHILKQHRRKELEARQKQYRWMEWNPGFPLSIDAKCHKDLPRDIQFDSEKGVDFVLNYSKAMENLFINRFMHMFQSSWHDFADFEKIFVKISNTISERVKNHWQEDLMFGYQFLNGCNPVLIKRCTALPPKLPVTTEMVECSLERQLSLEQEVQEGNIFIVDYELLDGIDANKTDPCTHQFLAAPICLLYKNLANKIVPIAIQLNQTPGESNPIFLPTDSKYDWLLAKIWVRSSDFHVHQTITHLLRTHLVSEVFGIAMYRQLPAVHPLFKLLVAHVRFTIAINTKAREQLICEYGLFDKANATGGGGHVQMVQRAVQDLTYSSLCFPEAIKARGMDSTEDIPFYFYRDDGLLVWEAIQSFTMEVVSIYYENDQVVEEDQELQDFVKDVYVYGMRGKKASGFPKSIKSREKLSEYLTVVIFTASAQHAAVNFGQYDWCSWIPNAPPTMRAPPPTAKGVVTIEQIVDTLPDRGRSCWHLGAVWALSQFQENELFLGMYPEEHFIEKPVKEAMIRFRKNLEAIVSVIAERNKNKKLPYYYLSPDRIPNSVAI
Assay type: cell-based
Excerpt: Use the interleukin-3-dependent murine mast cell clone, MC-9, to test the effects of representative compounds of the invention on lipoxygenase activity. Grow the MC-9 cell line in suspension culture (0.4 to 1.2×10^6 cells/ml) in RPMI 1640 medium (Gibco) with 10% fetal bovine serum (Hyclone) and 2-5% concanavalin-A conditioned supernatant (Musch et. al., (1985) Prostagandins 29, 405-4307). Harvest the cells, wash them twice by centrifugation, and resuspend them in a Ca^++ -free HEPES buffer (25 mM HEPES, 125 mM NaCl, 2.5 mMKCl, 0.7 mM MgCl2 0.5 mM EDTA and 10 mM glucose at pH 7.4).
Preincubate MC-9 cells (0.39 ml at 7.5×10^6 cells/ml) without or with test compound dissolved in dimethylsulfoxide (DMSO) vehicle (to final volume 1 ml) for 4 minutes then incubate for 5 minutes with [^14 C]-arachidonic acid (Amersham, 59 Ci/mole) at a […] final concentration, and A23187 (Calbiochem) at a […] final concentration in […] of water:ethanol (9:1). Stop the reaction by addition of methanol (0.4 ml), and remove cellular debris by centrifugation. Run aliquots ([…]) of the incubations on a Waters two-pump HPLC system fitted with a Waters radial compression column (C18, 10 micron, 8×100 mm, micro-Bondapak) and C18 "Guard Pak". Initially elute the column at 3 ml/min with water:methanol:acetic acid (67:33:0.08) containing 1 mM EDTA adjusted to pH 6.0 with ammonium hydroxide (Pump A). At 4 minutes, establish a linear gradient to reach 100% methanol (Pump B) at 9 minutes. Between 13 and 14 minutes, exchange for the initial eluting solvent and by 19 minutes the column will be reequilibrated for the next sample. Analyze the effluent by a continuous flow radioactivity monitor (model ROMONA-D) interfaced with a Hewlett Packard Lab Automation System for quantitation of radioactive products.
These products are predominantly leukotriene C4 (LTC4), which elutes at 6 minutes, and 5-hydroxeicosatetraenoic acid (5-HETE), which elutes at 11 minutes (Musch et. al., supra). […] Doses in table 1 are 50 μM unless otherwise noted.

Structure (SMILES) | inhibition at 50 µM [%]
O=C(O)CCC/C=C/c1cccc(OCc2ccccc2)c1 | 84
O=C(O)CCC/C=C/c1cccc(Oc2ccccc2)c1 | 74
O=C(O)CCC/C=C/c1cccc(OCc2cccnc2)c1 | 7
O=C(O)CCC/C=C/c1cccc(OCC2CCCCO2)c1 (stereo not drawn) | 23
CCOC(=O)CCC/C=C/c1cccc(OCc2c[nH]cn2)c1 | 89
O=C(O)CCC/C=C/c1cccc(SCc2ccccc2)c1 | 0
O=C(O)CCCC#Cc1cccc(OCc2ccccc2)c1 | 80
O=C(O)CCC/C=C\c1cccc(OCc2ccccc2)c1 | 89
O=C(O)CCCCCc1cccc(OCc2ccccc2)c1 | 80
